In US7772241B2, “Variolin derivatives and their use as antitumor agents” (Pharma Mar S.A., priority 2001, dated 2010):
Where two headings read alike, the source gives them in different places.

Columns and labels:
K-562 = assay: Inhibition of cells growth by colorimetric (SRB) assay, K-562; settings: SRB assay, 48 hours exposure
How it was run: (§1)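 Read-out is sulforhodamine B protein stain (OD 490 nm) after cold TCA fixation, following 48 h continuous exposure to samples spanning 10 to 10^−8 μg/ml.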

A-549 = assay: Inhibition of cells growth by colorimetric (SRB) assay, A-549
How it was run: as §1

SK-MEL-28 = assay: Inhibition of cells growth by colorimetric (SRB) assay, SK-MEL-28; settings: SRB assay, 48 hours exposure
How it was run: as §1

HT-29 = assay: Inhibition of cells growth by colorimetric (SRB) assay, HT-29
How it was run: as §1

LoVo = assay: Inhibition of cells growth by colorimetric (SRB) assay, LoVo; settings: SRB assay, 48 hours exposure
How it was run: as §1

LoVo-Dox = assay: Inhibition of cells growth by colorimetric (SRB) assay, LoVo-Dox; settings: SRB assay, 48 hours exposure
How it was run: as §1

DU-145 = assay: Inhibition of cells growth by colorimetric (SRB) assay, DU-145; settings: SRB assay, 48 hours exposure
How it was run: as §1

LNCaP = assay: Inhibition of cells growth by colorimetric (SRB) assay, LNCaP; settings: SRB assay, 48 hours exposure
How it was run: as §1

SK-BR-3 = assay: Inhibition of cells growth by colorimetric (SRB) assay, SK-BR-3; settings: SRB assay, 48 hours exposure
How it was run: as §1

IGROV-1 = assay: Inhibition of cells growth by colorimetric (SRB) assay, IGROV-1; settings: SRB assay, 48 hours exposure
How it was run: as §1

IGROV-ET = assay: Inhibition of cells growth by colorimetric (SRB) assay, IGROV-ET; settings: SRB assay, 48 hours exposure
How it was run: as §1

HeLa = assay: Inhibition of cells growth by colorimetric (SRB) assay, HeLa; settings: SRB assay, 48 hours exposure
How it was run: as §1

HeLa-APL = assay: Inhibition of cells growth by colorimetric (SRB) assay, HeLa-APL; settings: SRB assay, 48 hours exposure
How it was run: as §1

PANC-1 = assay: Inhibition of cells growth by colorimetric (SRB) assay, PANC-1; settings: SRB assay, 48 hours exposure
How it was run: as §1

[1] = Inhibition of cells growth by colorimetric (SRB) assay, HMEC1; settings: human, HMEC1 cells, LC50 H-MEC-1, SRB assay, 48 hours exposure
HMEC1 = assay: as above

For `CSc1nccc(-c2c3c(O)ccnc3n3c(N)nccc23)n1` [Compound 95], the “K-562 TGI” value (K-562) was 3.08E−05, the GI50 (K-562; read-out: K-562 GI50) was at least 30.8 µM and the CC50 (K-562; read-out: K-562 LC50) was at least 30.8 µM. For the same molecule, the GI50 (A-549; Homo sapiens, A549, 48 h, read-out: GI50 A-549, SRB assay, 48 hours exposure) was at least 30.8 µM, the CC50 (A-549; Homo sapiens, A549, 48 h, read-out: LC50 A-549, SRB assay, 48 hours exposure) was at least 30.8 µM and the “A-549 TGI” value (A-549; SRB assay, 48 hours exposure) was 3.08E−05. For the same molecule, the “TGI A-549” value (A-549; SRB assay, 48 hours exposure) was 3.08E−05, the GI50 (A-549; read-out: A-549 GI50, SRB assay, 48 hours exposure) was 8.63 µM and the CC50 (A-549; read-out: A-549 LC50, SRB assay, 48 hours exposure) was at least 30.8 µM. For the same molecule, the “MEL-28 TGI” value (SK-MEL-28) was 3.08E−05, the GI50 (SK-MEL-28; read-out: MEL-28 GI50) was at least 30.8 µM and the CC50 (SK-MEL-28; read-out: MEL-28 LC50) was at least 30.8 µM. For the same molecule, the GI50 (HT-29; Homo sapiens, HT-29, 48 h, read-out: GI50 HT-29, SRB assay, 48 hours exposure) was at least 30.8 µM, the CC50 (HT-29; Homo sapiens, HT-29, 48 h, read-out: LC50 HT-29, SRB assay, 48 hours exposure) was at least 30.8 µM and the “HT-29 TGI” value (HT-29; SRB assay, 48 hours exposure) was 3.08E−05. The “TGI HT-29” value (HT-29; SRB assay, 48 hours exposure) was 3.08E−05, the GI50 (HT-29; read-out: HT-29 GI50, SRB assay, 48 hours exposure) was at least 30.8 µM and the CC50 (HT-29; read-out: HT-29 LC50, SRB assay, 48 hours exposure) was at least 30.8 µM. The “LOVO TGI” value (LoVo) was 3.08E−05, the GI50 (LoVo; read-out: LOVO GI50) was 11.3 µM and the CC50 (LoVo; read-out: LOVO LC50) was at least 30.8 µM. The “LOVO-DOX TGI” value (LoVo-Dox) was 3.08E−05, the GI50 (LoVo-Dox; read-out: LOVO-DOX GI50) was at least 30.8 µM and the CC50 (LoVo-Dox; read-out: LOVO-DOX LC50) was at least 30.8 µM. For the same molecule, the “DU-145 TGI” value (DU-145) was 3.08E−05, the GI50 (DU-145; read-out: DU-145 GI50) was 10.2 µM and the CC50 (DU-145; read-out: DU-145 LC50) was at least 30.8 µM. For the same molecule, the “LN-caP TGI” value (LNCaP) was 3.08E−05, the GI50 (LNCaP; read-out: LN-caP GI50) was 4.1 µM and the CC50 (LNCaP; read-out: LN-caP LC50) was at least 30.8 µM. For the same molecule, the “SK-BR-3 TGI” value (SK-BR-3) was 3.08E−05, the GI50 (SK-BR-3; read-out: SK-BR-3 GI50) was 1.52 µM and the CC50 (SK-BR-3; read-out: SK-BR-3 LC50) was at least 30.8 µM. The “IGROV TGI” value (IGROV-1) was 3.08E−05, the GI50 (IGROV-1; read-out: IGROV GI50) was at least 30.8 µM and the CC50 (IGROV-1; read-out: IGROV LC50) was at least 30.8 µM. The “IGROV-ET TGI” value (IGROV-ET) was 3.08E−05, the GI50 (IGROV-ET; read-out: IGROV-ET GI50) was 3.95 µM and the CC50 (IGROV-ET; read-out: IGROV-ET LC50) was at least 30.8 µM. For the same molecule, the “HELA TGI” value (HeLa) was 2.57E−08, the GI50 (HeLa; read-out: HELA GI50) was 0.00916 µM and the “HELA-APL TGI” value (HeLa-APL) was 1.31E−08. For the same molecule, the GI50 (HeLa-APL; read-out: HELA-APL GI50) was 0.00546 µM, the CC50 (HeLa-APL; read-out: HELA-APL LC50) was 0.0382 µM and the “PANC-1 TGI” value (PANC-1) was 3.08E−05. For the same molecule, the GI50 (PANC-1; read-out: PANC-1 GI50) was 24.2 µM, the CC50 (PANC-1; read-out: PANC-1 LC50) was at least 30.8 µM and the CC50 at 48 h [1] was at least 30.8 µM. For the same molecule, the GI50 (HMEC1; Homo sapiens, HMEC-1, 48 h, read-out: GI50 H-MEC-1, SRB assay, 48 hours exposure) was at least 30.8 µM and the “TGI H-MEC-1” value (HMEC1; SRB assay, 48 hours exposure, in M (unit assumed)) was 3.08E−05.
